How the values were obtained:
[1] = test system: Daudi human Burkitt’s Lymphoma cell line; assay: Study 1: Daudi xenograft human Burkitt's lymphoma subcutaneous tumor model; type: in vivo, CB17 SCID mice; details: for GRI%: vs vehicle; for Tumor growth relative to vehicle-treated tumors (pairwise comparison): I-263a 7.5 mg/kg BIW, daratumumab 7.5 mg/kg BIW or both, data up to Day 22, p < 0.001
Protocol: (§1) Low tumor volumes can cause problems with the data analysis, so all measurements below 25 cubic mm (including 0 values) were excluded from the analysis. After this exclusion step, the tumor volume was assumed to follow an exponential growth model. More specifically, for a given animal and treatment group,
(§2) Pairwise comparisons were performed, where the mean growth rates were compared for various pairs of treatment conditions. The results were summarized using the growth rate inhibition (GRI). Suppose µT and µC are the mean tumor growth rates for the treatment and reference groups, respectively. Define
(§3) Here, µAB, µA, µB, and µControl are the mean growth rates for the combination, drug A, drug B, and control groups, respectively. As before, µv is the mean tumor growth rate for the vehicle group, which in most cases is the same as the control group. The standard error of the synergy score was calculated as the square root of the sum of squared standard errors across the four groups. The degrees of freedom were estimated using the Welch-Satterthwaite equation. A hypothesis test was performed to determine if the synergy score differed from 0. P-values were calculated by dividing the synergy score by its standard error and tested against a t-distribution (two-tailed) with the above-calculated degrees of freedom. A P value of less than 0.05 is statistically significant.
(§4) The combination results can be interpreted as follows. Statistically significant negative synergy scores indicate a synergistic combination (“Syn.”). Statistically significant positive synergy scores indicate a sub-additive combination (“Sub-add.”) when the combination performs better (i.e. has a lower growth rate) than the best performing single agent. Statistically significant positive synergy scores indicate an antagonistic combination (“Antag.”) when the combination performs worse than the best performing single agent. Scores that are not statistically significant should be considered additive (“Add.”).
Daudi is a human Burkitt’s Lymphoma cell line. A Daudi human xenograft tumor model was generated by subcutaneous inoculation with 2.0 […] 10^6 Daudi cells (cell suspension) in 6 weeks old female CB17 SCID mice (Charles River Laboratories, 251 Ballardvale St., Wilmington, MA) in the flank. When the mean tumor volume reached approximately 120 mm^3, the animals were randomized into one vehicle control and three treatment groups (n=8/group). Mice were then dosed with 20% HPβCD or Compound I-263a and/or daratumumab over a 21-day period. Tumor growth and body weight were measured twice per week during the treatment and post-treatment periods, and mice were humanely euthanized once they had reached their humane endpoint.
A 1.725 mg/mL and a 0.862 mg/mL stock solution of I-263a was formulated weekly in 20% HPβCD and administered intravenously (IV) based on an average body weight using a 0.2 mL dosing volume. Final doses I-263a received were 7.5 mg/kg. I-263a was administered on a BIW schedule for 3 weeks (Days 1, 4, 8, 11, 15, and 18). Daratumumab (anti-CD38 antibody) (Myoderm Medical Supplies, 48 E Main St., Norristown, PA 19401) was purchased at the beginning of the study and stored at 4° C. according to manufacturer’s instructions. Final dose daratumumab received was 7.5 mg/kg based on average body weight. Daratumumab was administered intraperitoneally (IP) using a 0.1 mL dosing volume, on a BIW schedule for 3 weeks (Days, 1, 4, 8, 11, 15, and 18).
(§5) Tumors were measured twice weekly using Vernier calipers. Tumor volumes were calculated using standard equation: V = W^2 x L/2, where V = volume, W = width, and L = length for the tumor. When mean tumor volumes reached approximately 120 mm^3, mice were randomized into control and treatment groups. Mice were randomized into 4 groups (n=8/group) and dosed with vehicle (20% HPβCD), I-263a, daratumumab, or the combination of I-263a plus daratumumab at doses and schedules described above. […]

[2] = test system: MOLP-8 human multiple myeloma cell line; assay: Study 4: MOLP-8 xenograft human multiple myeloma subcutaneous tumor model; type: in vivo, SCID mice; details: for Tumor growth compared to vehicle (pairwise comparison): I-263a 7.5 mg/kg BIW 2 weeks (p < 0.05 as printed), daratumumab 2.5, 7.5 or 20 mg/kg (p < 0.01; p < 0.01; p < 0.001), I-263a with daratumumab 2.5, 7.5 or 20 mg/kg (p < 0.001); for GRI%: vs vehicle
Protocol: as §1, §2, §3, §4
MOLP-8 is a human multiple myeloma cell line. A MOLP-8 human xenograft tumor model was generated by subcutaneous inoculation with 4.0 × 10^6 MOLP-8 cells (cell suspension) in 14 weeks old female SCID mice (Vital River Laboratory Animal Technology Co., Ltd, Beijing, China) in the flank. When the mean tumor volume reached approximately 170 mm^3, the animals were randomized into one vehicle control and seven treatment groups (n=8/group). Mice were then dosed with 20% HPβCD or Compound I-263a or daratumumab over a 14-day period. Tumor growth and body weight were measured twice per week during the treatment and post-treatment periods, and mice were humanely euthanized once they had reached their humane endpoint.
A 0.75 mg/mL stock solution of I-263a was formulated weekly in 20% HPβCD and administered IV based on exact animal body weight on each day of treatment, using a dosing volume of 10 mL/kg body weight. Final dose I-263a received was 7.5 mg/kg. I-263a was administered on a BIW schedule for 2 weeks (Days 1, 4, 8, and 11). Daratumumab (anti-CD38 antibody) (Janssen Biotech, Inc., Horsham, PA) was stored at 4° C. according to manufacturer’s instructions. Final dose daratumumab received was 2.5 mg/kg, 7.5 mg/kg, and 20 mg/kg based on exact animal body weight on each day of treatment, using a dosing volume of 10 mL/kg body weight. Daratumumab was administered intraperitoneally (IP) using a 0.1 mL dosing volume, on a BIW schedule for 2 weeks (Days 1, 4, 8, and 11).
as §5, with “W^2 ×” for “W^2 x”, “approximately 170” for “approximately 120”, “into 8” for “into 4”, “schedules as” for “schedules”

Compound	Tumor Volume on Day 22 (±SEM) ([1]; I-263a 7.5 mg/kg BIW IV)	GRI% ([1]; I-263a 7.5 mg/kg BIW IV)	Tumor growth relative to vehicle-treated tumors (pairwise comparison) [1]	Tumor growth compared to vehicle (pairwise comparison) [2]	Tumor volume on Day 14 (± SEM) ([2]; I-263a 7.5 mg/kg BIW IV)	GRI% ([2]; I-263a 7.5 mg/kg BIW IV)	Tumor Volume on Day 22 (±SEM) ([1]; Daratumumab 7.5 mg/kg BIW IP)	GRI% ([1]; Daratumumab 7.5 mg/kg BIW IP)	Tumor volume on Day 14 (± SEM) ([2]; Daratumumab 2.5 mg/kg BIW IP)	GRI% ([2]; Daratumumab 2.5 mg/kg BIW IP)	Tumor volume on Day 14 (± SEM) ([2]; Daratumumab 7.5 mg/kg BIW IP)	GRI% ([2]; Daratumumab 7.5 mg/kg BIW IP)	Tumor volume on Day 14 (± SEM) ([2]; Daratumumab 20 mg/kg BIW IP)	GRI% ([2]; Daratumumab 20 mg/kg BIW IP)
Cc1sc(C(=O)c2cncnc2N[C@@H]2C[C@H](COS(N)(=O)=O)[C@@H](O)C2)cc1[C@@H]1NCCc2ccc(Cl)cc21 [Compound I-263a, [(1R,2S,4R)-4-{[5-({4-[(1R)-7-chloro-1,2,3,4-tetrahydroisoquinolin-1-yl]-5-methyl-2-thienyl}carbonyl)pyrimidin-4-yl]amino}-2-hydroxycyclopentyl]methyl sulfamate]	1509.4 ± 109.1	15%	tumor growth inhibition	not significantly different	2500.8 ± 106.6	3%	–	–	–	–	–	–	–	–
Daratumumab: immunoglobulin G1 kappa (IgG1κ) human monoclonal antibody against CD38 antigen	–	–	tumor growth inhibition	significantly inhibited growth curves	–	–	1043.9 ± 159.1	29%	2047.4 ± 83.4	11%	1653 ± 158.5	20%	1250.6 ± 108.6	28%

— patent US20230218618A1, “ADMINISTRATION OF SUMO-ACTIVATING ENZYME INHIBITOR AND ANTI-CD38 ANTIBODIES” (MILLENNIUM PHARMACEUTICALS, INC., priority 2020, published 2023)
